Experimental data published in ChEMBL document CHEMBL3259772, “Identification and characterization of small molecule modulators of the Epstein-Barr virus-induced gene 2 (EBI2) receptor” (J Med Chem, 2014).

Columns and labels:
Assay type in all cases: ADME, organism-based
[1] = AUC (infinity) in C57BL/6 mouse at 1 mg/kg, iv administered as cassette dose; set-up: time infinity, dose 1 mg/kg, route intravenous; conditions: plasma
[2] = Tmax in C57BL/6 mouse at 5 mg/kg, po administered as cassette dose; set-up: dose 5 mg/kg, route oral; conditions: in vivo
[3] = Oral bioavailability in C57BL/6 mouse at 5 mg/kg administered as cassette dose; conditions: in vivo
[4] = AUC (infinity) in C57BL/6 mouse at 5 mg/kg, po administered as cassette dose; set-up: time infinity, dose 5 mg/kg, route oral; conditions: plasma
[5] = Cmax in C57BL/6 mouse at 5 mg/kg, po administered as cassette dose; set-up: dose 5 mg/kg, route oral; conditions: in vivo
[6] = Terminal blood half life in C57BL/6 mouse at 1 mg/kg, iv administered as cassette dose; set-up: dose 1 mg/kg, route intravenous; conditions: read-out: beta t1/2 (converted)
Mus musculus = experiment: Total blood clearance in C57BL/6 mouse at 1 mg/kg, iv administered as cassette dose; set-up: dose 1 mg/kg, route intravenous; conditions: in vivo
[7] = Apparent volume of distribution at steady state in C57BL/6 mouse at 1 mg/kg, iv administered as cassette dose; set-up: dose 1 mg/kg, route intravenous; conditions: in vivo, read-out: Vdss(app)

AUC(0-inf) [1] | Tmax [2] | bioavailability [3] | AUC(0-inf) [4] | Cmax [5] | half-life [6] | CL (Mus musculus) | Vd [7] | SMILES
2.44 µM·h | 1 h | 49% | 3.61 µM·h | 835 nM | 66 min | 16 µL/min/mg | 1.4 L/kg | COc1ccc(C(=O)N2CCN(C(=O)/C=C/c3ccc(Br)cc3)CC2)cc1
0.841 µM·h |  |  |  |  | 12 min | 52 µL/min/mg | 0.8 L/kg | COc1ccc(/C=C/C(=O)N2CCN(C(=O)c3ccc(OC)cc3)CC2)cc1
